In patent US20020137929A1, “1 - (3-heterocyclylphenyl) isothiourea, -isourea, -guanidine and -amidine herbicidal agents” (Intellectual Property Department, BASF Aktiengesellschaft, priority 1998, published 2002):

Assays:
[1] = system: ABUTH (Velvetleaf); assay: Preemergence herbicidal evaluation; format: in vivo, Abutilon theophrasti; settings: rated 4-5 weeks after treatment
Summary of the method: (§1)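 Steps: mix seeds into potting soil; plant atop ~1 inch soil; spray compound in aqueous acetone (~0.0156-0.500 kg/ha equivalent); maintain in greenhouse with watering; rate visually 0-9 versus control at 4-5 weeks.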

[2] = system: CASOB (Sicklepod); assay: Preemergence herbicidal evaluation; format: in vivo, Cassia obtusifolia; settings: rated 4-5 weeks after treatment
Summary of the method: as §1

[3] = system: TRZAWR (Wheat, Winter, cv Riband); assay: Postemergence herbicidal evaluation; format: in vivo, Triticum aestivum; settings: postemergence
Summary of the method: (§2)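 Two-week seedlings sprayed postemergence at 40 psi; formulation: 1:1 acetone/water, 0.5% TWEEN 20; application ≈0.0156–0.500 kg/ha. Greenhouse grow-out, then 0–9 visual scoring at 4–5 weeks.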

[4] = system: GLXMAW (Soybean, Williams); assay: Postemergence herbicidal evaluation; format: in vivo, Glycine max, (L.) Merr. cv Williams; settings: postemergence
Summary of the method: as §2

[5] = system: SAGPY (Arrowhead (Pygmaea)); assay: Preemergence weed control under flooded paddy conditions; format: in vivo, Sagittaria pygmaea; settings: rated 3-4 weeks after treatment
Summary of the method: (§3)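 Seeds or propagules sown in silt loam kept flooded 1.5-3 cm; compounds in 50/50 acetone/water pipetted into flood water at about 0.0313 to 0.500 kg/ha. Greenhouse; visual 0-9 rating versus untreated control 3-4 weeks after treatment.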

[6] = system: ECHCG (Barnyardgrass); assay: Postemergence herbicidal evaluation; format: in vivo, Echinochloa crus-galli; settings: postemergence
Summary of the method: as §2

[7] = system: ORYSAT (Rice, Tebonnet); assay: Postemergence herbicidal evaluation; format: in vivo, Oryza sativa, (L.) Tebonnet; settings: postemergence
Summary of the method: as §2

[8] = system: SETVI (Foxtail, Green); assay: Preemergence herbicidal evaluation; format: in vivo, Setaria viridis; settings: rated 4-5 weeks after treatment
Summary of the method: as §1

[9] = system: ABUTH (Velvetleaf); assay: Postemergence herbicidal evaluation; format: in vivo, Abutilon theophrasti; settings: postemergence
Summary of the method: as §2

[10] = system: MOOVA (Monochoria); assay: Preemergence weed control under flooded paddy conditions; format: in vivo, Monochoria vaginalis; settings: rated 3-4 weeks after treatment
Summary of the method: as §3

[11] = system: AMBEL (Ragweed, Common); assay: Postemergence herbicidal evaluation; format: in vivo, Ambrosia artemisifolia; settings: postemergence
Summary of the method: as §2

[12] = system: SETVI (Foxtail, Green); assay: Postemergence herbicidal evaluation; format: in vivo, Setaria viridis; settings: postemergence
Summary of the method: as §2

[13] = rate 0.0313 kg/ha, rating scale 0-9
[14] = rate 0.0625 kg/ha, rating scale 0-9
[15] = rate 0.1250 kg/ha, rating scale 0-9
[16] = rate 0.2500 kg/ha, rating scale 0-9

Cn1c(C(F)(F)F)cc(=O)n(-c2cc(N=C3SCC(=O)N3Cc3cc(Cl)cc(Cl)c3)c(Cl)cc2F)c1=O [Compound 150, 3-{4-Chloro-5-{[3-(3,5-dichlorobenzyl)-4-oxo-2-thiazolidinylidene]amino}-2-fluorophenyl}-1-methyl-6-(trifluoromethyl)-2,4(1H,3H)-pyrimidinedione]
7.0: Herbicidal rating AMBEL ([11]; rate 0.0156 kg/ha)
0.0: Preemergence herbicidal rating ABUTH [1, 13] | Preemergence herbicidal rating CASOB [2, 13] | herbicidal effect rating, SAGPY ([5]; 0.0313 kg/ha) | Preemergence herbicidal rating SETVI [8, 13] | Preemergence herbicidal rating SETVI [8, 14]
6.0: Herbicidal rating GLXMAW ([4]; rate 0.0625 kg/ha) | herbicidal effect rating, MOOVA ([10]; 0.0313 kg/ha)
3.5: Herbicidal rating TRZAWR ([3]; rate 0.0156 kg/ha) | Herbicidal rating TRZAWR ([3]; rate 0.0313 kg/ha) | Herbicidal rating TRZAWR ([3]; rate 0.0625 kg/ha)
2.0: Preemergence herbicidal rating CASOB [2, 14] | Preemergence herbicidal rating CASOB [2, 16] | herbicidal effect rating, SAGPY ([5]; 0.0625 kg/ha) | herbicidal effect rating, SAGPY ([5]; 0.1250 kg/ha) | herbicidal effect rating, SAGPY ([5]; 0.2500 kg/ha) | Herbicidal rating ECHCG ([6]; rate 0.0156 kg/ha) | Herbicidal rating ECHCG ([6]; rate 0.0625 kg/ha) | Herbicidal rating ORYSAT ([7]; rate 0.0156 kg/ha)
5.0: Herbicidal rating GLXMAW ([4]; rate 0.0156 kg/ha) | Herbicidal rating SETVI ([12]; rate 0.0625 kg/ha)
5.5: Herbicidal rating GLXMAW ([4]; rate 0.0313 kg/ha)
3.0: Herbicidal rating ORYSAT ([7]; rate 0.0625 kg/ha)
2.5: Herbicidal rating ORYSAT ([7]; rate 0.0313 kg/ha)
1.0: Preemergence herbicidal rating CASOB [2, 15] | Herbicidal rating ECHCG ([6]; rate 0.0313 kg/ha) | Herbicidal rating SETVI ([12]; rate 0.0156 kg/ha) | Herbicidal rating SETVI ([12]; rate 0.0313 kg/ha)
4.0: Preemergence herbicidal rating ABUTH [1, 14] | Preemergence herbicidal rating SETVI [8, 15]
9.0: Preemergence herbicidal rating ABUTH [1, 15] | Preemergence herbicidal rating ABUTH [1, 16] | Preemergence herbicidal rating SETVI [8, 16] | Herbicidal rating ABUTH ([9]; rate 0.0156 kg/ha) | Herbicidal rating ABUTH ([9]; rate 0.0313 kg/ha) | Herbicidal rating ABUTH ([9]; rate 0.0625 kg/ha) | herbicidal effect rating, MOOVA ([10]; 0.0625 kg/ha) | herbicidal effect rating, MOOVA ([10]; 0.1250 kg/ha) | herbicidal effect rating, MOOVA ([10]; 0.2500 kg/ha) | Herbicidal rating AMBEL ([11]; rate 0.0313 kg/ha) | Herbicidal rating AMBEL ([11]; rate 0.0625 kg/ha)

CCN1C(=O)CSC1=Nc1cc(-n2c(=O)cc(C(F)(F)F)n(C)c2=O)c(F)cc1Cl [Compound 159, 3-{4-Chloro-5-[(3-ethyl-4-oxo-2-thiazolidinyl-idene)amino]-2-fluorophenyl}-1-methyl-6-(trifluoromethyl)-2,4(1H,3H)-pyrimidinedione]
1.5: Herbicidal rating ORYSAT ([7]; rate 0.0156 kg/ha)
2.5: Herbicidal rating TRZAWR ([3]; rate 0.0156 kg/ha)
5.5: Herbicidal rating GLXMAW ([4]; rate 0.0313 kg/ha)
3.0: Preemergence herbicidal rating CASOB ([2]; 0.0625 kg/ha) | Preemergence herbicidal rating CASOB ([2]; 0.1250 kg/ha) | herbicidal effect rating, SAGPY ([5]; 0.0625 kg/ha) | herbicidal effect rating, SAGPY ([5]; 0.1250 kg/ha) | Herbicidal rating ECHCG ([6]; rate 0.0313 kg/ha) | Herbicidal rating ECHCG ([6]; rate 0.0625 kg/ha) | herbicidal effect rating, MOOVA ([10]; 0.0625 kg/ha)
2.0: Preemergence herbicidal rating ABUTH ([1]; 0.0156 kg/ha) | Herbicidal rating ECHCG ([6]; rate 0.0156 kg/ha) | Herbicidal rating ORYSAT ([7]; rate 0.0313 kg/ha) | Herbicidal rating ORYSAT ([7]; rate 0.0625 kg/ha) | Herbicidal rating SETVI ([12]; rate 0.0313 kg/ha)
5.0: Herbicidal rating GLXMAW ([4]; rate 0.0156 kg/ha)
3.5: Herbicidal rating TRZAWR ([3]; rate 0.0313 kg/ha) | Herbicidal rating TRZAWR ([3]; rate 0.0625 kg/ha)
0.0: Preemergence herbicidal rating CASOB ([2]; 0.0156 kg/ha) | herbicidal effect rating, SAGPY ([5]; 0.0313 kg/ha) | herbicidal effect rating, MOOVA ([10]; 0.0313 kg/ha)
7.0: Preemergence herbicidal rating CASOB ([2]; 0.2500 kg/ha) | Herbicidal rating GLXMAW ([4]; rate 0.0625 kg/ha) | Preemergence herbicidal rating SETVI ([8]; 0.0625 kg/ha) | Preemergence herbicidal rating SETVI ([8]; 0.2500 kg/ha) | Herbicidal rating AMBEL ([11]; rate 0.0313 kg/ha) | Herbicidal rating AMBEL ([11]; rate 0.0625 kg/ha) | Herbicidal rating SETVI ([12]; rate 0.0625 kg/ha)
9.0: Preemergence herbicidal rating ABUTH ([1]; 0.0313 kg/ha) | Preemergence herbicidal rating ABUTH ([1]; 0.0625 kg/ha) | Preemergence herbicidal rating ABUTH ([1]; 0.1250 kg/ha) | Preemergence herbicidal rating ABUTH ([1]; 0.2500 kg/ha) | Preemergence herbicidal rating SETVI ([8]; 0.1250 kg/ha) | Herbicidal rating ABUTH ([9]; rate 0.0156 kg/ha) | Herbicidal rating ABUTH ([9]; rate 0.0313 kg/ha) | Herbicidal rating ABUTH ([9]; rate 0.0625 kg/ha) | herbicidal effect rating, MOOVA ([10]; 0.2500 kg/ha)
8.0: Preemergence herbicidal rating SETVI ([8]; 0.0313 kg/ha)
1.0: Preemergence herbicidal rating CASOB ([2]; 0.0313 kg/ha) | Preemergence herbicidal rating SETVI ([8]; 0.0156 kg/ha) | Herbicidal rating SETVI ([12]; rate 0.0156 kg/ha)
6.0: herbicidal effect rating, SAGPY ([5]; 0.2500 kg/ha) | herbicidal effect rating, MOOVA ([10]; 0.1250 kg/ha)
4.0: Herbicidal rating AMBEL ([11]; rate 0.0156 kg/ha)

Cn1c(C(F)(F)F)cc(=O)n(-c2cc(N=C3SCC(=O)N3Cc3ccccn3)c(Cl)cc2F)c1=O [Compound 131]
7.0: Herbicidal rating ABUTH ([9]; rate 0.0156 kg/ha) | Herbicidal rating AMBEL ([11]; rate 0.0156 kg/ha)
4.0: Herbicidal rating SETVI ([12]; rate 0.0313 kg/ha)
2.0: Preemergence herbicidal rating ABUTH [1, 15] | Preemergence herbicidal rating CASOB [2, 16] | herbicidal effect rating, SAGPY ([5]; 0.2500 kg/ha) | Herbicidal rating ECHCG ([6]; rate 0.0156 kg/ha) | Herbicidal rating ECHCG ([6]; rate 0.0313 kg/ha) | Herbicidal rating ECHCG ([6]; rate 0.0625 kg/ha) | Herbicidal rating ORYSAT ([7]; rate 0.0156 kg/ha) | herbicidal effect rating, MOOVA ([10]; 0.2500 kg/ha)
0.0: Preemergence herbicidal rating ABUTH [1, 13] | Preemergence herbicidal rating ABUTH [1, 14] | Preemergence herbicidal rating CASOB [2, 13] | Preemergence herbicidal rating CASOB [2, 14] | Preemergence herbicidal rating CASOB [2, 15] | herbicidal effect rating, SAGPY ([5]; 0.1250 kg/ha) | Preemergence herbicidal rating SETVI [8, 13] | Preemergence herbicidal rating SETVI [8, 14] | Preemergence herbicidal rating SETVI [8, 15] | herbicidal effect rating, MOOVA ([10]; 0.1250 kg/ha)
3.0: Herbicidal rating TRZAWR ([3]; rate 0.0156 kg/ha) | Herbicidal rating TRZAWR ([3]; rate 0.0313 kg/ha) | Herbicidal rating TRZAWR ([3]; rate 0.0625 kg/ha) | Herbicidal rating ORYSAT ([7]; rate 0.0625 kg/ha) | Preemergence herbicidal rating SETVI [8, 16] | Herbicidal rating SETVI ([12]; rate 0.0156 kg/ha)
5.0: Herbicidal rating GLXMAW ([4]; rate 0.0313 kg/ha) | Herbicidal rating SETVI ([12]; rate 0.0625 kg/ha)
9.0: Preemergence herbicidal rating ABUTH [1, 16] | Herbicidal rating ABUTH ([9]; rate 0.0313 kg/ha) | Herbicidal rating ABUTH ([9]; rate 0.0625 kg/ha) | Herbicidal rating AMBEL ([11]; rate 0.0313 kg/ha) | Herbicidal rating AMBEL ([11]; rate 0.0625 kg/ha)
4.5: Herbicidal rating GLXMAW ([4]; rate 0.0156 kg/ha)
5.5: Herbicidal rating GLXMAW ([4]; rate 0.0625 kg/ha)
2.5: Herbicidal rating ORYSAT ([7]; rate 0.0313 kg/ha)
